Measured values as given in the supplement of paper PMC11451515.

Assays:
Settings in all cases: 48 h
NOMO1 [1] = experiment: cell viability relative to DMSO control; higher = less cytotoxic
Outline: (§1)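 Library compounds in DMSO were pin-dosed in an 11-point threefold series (47 μM to 0.79 nM) onto leukemia cells in 1536-well plates (5 μl). Plates held 500 cells/well of NOMO1 or SEM or 1000 cells/well of P12-Ichikawa, each adapted for at least four passages in each medium. Luminescence was read with CellTiter-Glo One after 48 h at 37°C. Viability means the per-plate percentage relative to DMSO wells, using cell-free wells as background.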

P12-Ichikawa [2] = experiment: as above
Outline: as §1

SEM cells [3] = experiment: as above
Outline: as §1

NOMO1 [4] = experiment: AUC of viability dose-response curve (% viability x log10 dose units); higher = less sensitive
Outline: (§2)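 Leukemia cells adapted to each medium were seeded in 1536-well plates (500 or 1000 cells/well). They were dosed with library compounds in DMSO at 11 threefold doses, 47 μM to 0.79 nM, for 48 h at 37°C. CellTiter-Glo One luminescence was normalised per plate to DMSO and cell-free wells. Area under the curve was integrated by trapezoidal rule over log10 doses on a four-parameter log-logistic fit; curves exceeding full viability were scaled and curves failing quality control removed.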

P12-Ichikawa [5] = experiment: as above
Outline: as §2

SEM cells [6] = experiment: as above
Outline: as §2

CC1=C2N=C([NH]C2=CC(=C1)N3CCOCC3)\C4=C(NC[C@@H](O)C5=CC=CC(=C5)Cl)\C=C/NC4=O
cell viability [%]
Settings | NOMO1 [1] | P12-Ichikawa [2] | SEM cells [3]
HPLM + 10% dialyzed FBS, 0.000781 µM | 86.2 | 102 | 77.8
HPLM + 10% dialyzed FBS, 0.00234 µM | 100 | 104 | 95.7
HPLM + 10% dialyzed FBS, 0.00702 µM | 105 | 103 | 91.4
HPLM + 10% dialyzed FBS, 0.0211 µM | 99.8 | 109 | 91.2
HPLM + 10% dialyzed FBS, 0.0632 µM | 98.4 | 113 | 82.8
HPLM + 10% dialyzed FBS, 0.19 µM | 92.8 | 110 | 75.8
HPLM + 10% dialyzed FBS, 0.569 µM | 79.3 | 112 | 61.3
HPLM + 10% dialyzed FBS, 1.71 µM | 65.4 | 115 | 52.5
HPLM + 10% dialyzed FBS, 5.12 µM | 61.2 | 106 | 26.9
HPLM + 10% dialyzed FBS, 15.4 µM | 44.2 | 100 | 19.4
HPLM + 10% dialyzed FBS, 46.1 µM | 44.7 | 90.8 | 15.4
RPMI 5 mM glucose + 10% FBS, 0.000781 µM | 104 | 104 | 81.3
RPMI 5 mM glucose + 10% FBS, 0.00234 µM | 103 | 108 | 105
RPMI 5 mM glucose + 10% FBS, 0.00702 µM | 109 | 106 | 122
RPMI 5 mM glucose + 10% FBS, 0.0211 µM | 99.1 | 109 | 115
RPMI 5 mM glucose + 10% FBS, 0.0632 µM | 95.7 | 115 | 94.1
RPMI 5 mM glucose + 10% FBS, 0.19 µM | 108 | 114 | 95.6
RPMI 5 mM glucose + 10% FBS, 0.569 µM | 89.8 | 119 | 83.7
RPMI 5 mM glucose + 10% FBS, 1.71 µM | 73.7 | 117 | 56.2
RPMI 5 mM glucose + 10% FBS, 5.12 µM | 68.9 | 117 | 26.6
RPMI 5 mM glucose + 10% FBS, 15.4 µM | 65.3 | 106 | 14.2
RPMI 5 mM glucose + 10% FBS, 46.1 µM | 57.4 | 85.6 | 8.45
RPMI 5 mM glucose + 10% dialyzed FBS, 0.000781 µM | 99.6 | 101 | 70.7
RPMI 5 mM glucose + 10% dialyzed FBS, 0.00234 µM | 101 | 117 | 90.3
RPMI 5 mM glucose + 10% dialyzed FBS, 0.00702 µM | 90.4 | 120 | 84.6
RPMI 5 mM glucose + 10% dialyzed FBS, 0.0211 µM | 91.9 | 118 | 80.1
RPMI 5 mM glucose + 10% dialyzed FBS, 0.0632 µM | 96 | 116 | 67.9
RPMI 5 mM glucose + 10% dialyzed FBS, 0.19 µM | 87.6 | 119 | 75.1
RPMI 5 mM glucose + 10% dialyzed FBS, 0.569 µM | 72.8 | 120 | 66.8
RPMI 5 mM glucose + 10% dialyzed FBS, 1.71 µM | 67.1 | 128 | 46.7
RPMI 5 mM glucose + 10% dialyzed FBS, 5.12 µM | 53.6 | 110 | 21.1
RPMI 5 mM glucose + 10% dialyzed FBS, 15.4 µM | 57.2 | 105 | 13.7
RPMI 5 mM glucose + 10% dialyzed FBS, 46.1 µM | 49.1 | 85.7 | 7.96

AUC of viability dose-response curve
Settings | HPLM + 10% dialyzed FBS | RPMI 5 mM glucose + 10% FBS | RPMI 5 mM glucose + 10% dialyzed FBS
NOMO1 [4] | 385 | 411 | 378
P12-Ichikawa [5] | 469 | 469 | 465

CCN1CCN(Cc2ccc(-c3cc4c(N[C@H](C)c5ccccc5)ncnc4[nH]3)cc2)CC1
SEM cells [3], HPLM + 10% dialyzed FBS
Settings | cell viability [%]
0.000781 µM | 130
0.00234 µM | 124
0.00702 µM | 125
0.0211 µM | 132
0.0632 µM | 116
0.19 µM | 116
0.569 µM | 109
1.71 µM | 98.5
5.12 µM | 74.7
15.4 µM | 51.1
46.1 µM | 8.14

AUC of viability dose-response curve
Settings | NOMO1 [4] | P12-Ichikawa [5] | SEM cells [6]
HPLM + 10% dialyzed FBS | 439 | 448 | 384
RPMI 5 mM glucose + 10% FBS | 460 | 463 | 375
RPMI 5 mM glucose + 10% dialyzed FBS | 457 | 461 | 388

C[C@@H](Oc1cc(-n2cnc3ccc(CN4CCN(C)CC4)cc32)sc1C(N)=O)c1ccccc1C(F)(F)F
AUC of viability dose-response curve
Settings | NOMO1 [4] | P12-Ichikawa [5] | SEM cells [6]
HPLM + 10% dialyzed FBS | 280 | 208 | 233
RPMI 5 mM glucose + 10% FBS | 246 | 202 | 214
RPMI 5 mM glucose + 10% dialyzed FBS | 255 | 214 | 234
